Columns and labels:
[1] = Pharmacokinetic study in pigs; type: in vivo; conditions: 0.5 mg/pig subcutaneously, male large white pigs, n = 3
Description: Pharmacokinetic testing of GIP108, administered subcutaneously at 0.5 mg/pig in male large white pigs, was outsourced to Pharmaron Ltd., UK. Full details are stated elsewhere.

SNAP-tagged mouse GIPR = biological target: T1, SNAP-tagged mouse GIPR (Mus musculus, UniProt Q0P543); experiment: Internalisation and receptor surface expression assays in AD-293 cells; type: cell-based; conditions: 1 μM, 1-hour treatment, BG-S-S-649/Mesna, n = 3–4
T1 construct: host or cells: AD-293
T1 sequence (Q0P543 19-460): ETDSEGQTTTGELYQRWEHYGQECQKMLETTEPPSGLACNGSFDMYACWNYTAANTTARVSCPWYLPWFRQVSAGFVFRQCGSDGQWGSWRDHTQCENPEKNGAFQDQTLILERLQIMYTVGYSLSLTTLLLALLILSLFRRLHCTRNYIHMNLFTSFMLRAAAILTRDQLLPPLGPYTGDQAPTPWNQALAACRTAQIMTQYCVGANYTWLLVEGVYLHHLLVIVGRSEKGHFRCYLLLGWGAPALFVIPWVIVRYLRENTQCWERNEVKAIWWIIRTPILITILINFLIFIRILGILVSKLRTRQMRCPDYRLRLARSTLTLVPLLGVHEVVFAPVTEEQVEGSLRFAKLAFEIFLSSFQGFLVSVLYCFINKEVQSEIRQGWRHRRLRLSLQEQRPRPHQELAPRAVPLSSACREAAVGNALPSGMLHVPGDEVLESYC
Description: (§1) AD-293 cells were transfected with desired plasmid DNA encoding a SNAP-tagged G-protein coupled receptor (GPCR) 24 h prior to assay. For 1 h internalisation assays, cells were labelled for 10 min with cleavable SNAP-tag probe BG-S-S-649 (New England BioLabs, US). Following 1 h treatment with specified peptide, cells were imaged at baseline and after addition of 2-mercaptoethane sulfonate (Mesna). For 4-hour GPCR surface expression assays, cells were treated with the specified peptide for 4 h, prior to 10-minute labelling with BG-S-S-649 and imaging.
(§2) AD-293 cells were added to a 96-well plate and maintained in 200 μl complete DMEM. […]
(§3) For 1 hour internalisation assays, cells were labelled with cleavable SNAP-tag probe BG-S-S-649 (New England BioLabs, US) in complete DMEM for 10 minutes prior to washing and 1 hour treatment with specified peptide, reconstituted in DMEM + 0.1% BSA. […] GPCR internalisation was quantified as the cell fluorescence following Mesna addition (representing internalised GPCR), corrected for the baseline cell fluorescence (representing total cellular GPCR).
(§4) For 4-hour GPCR surface expression assays, cells were treated with specified peptide for 4 hours in complete DMEM prior to labelling with BG-S-S-649. […] GPCR surface expression following peptide treatment was quantified as cell fluorescence as a percentage of cell fluorescence following vehicle treatment.

SNAP-tagged human GIPR = biological target: T2, SNAP-tagged human GIPR (Homo sapiens, UniProt P48546); experiment: as above; type: cell-based; conditions: 1 μM
T2 construct: host or cells: AD-293
T2 sequence (P48546 22-466): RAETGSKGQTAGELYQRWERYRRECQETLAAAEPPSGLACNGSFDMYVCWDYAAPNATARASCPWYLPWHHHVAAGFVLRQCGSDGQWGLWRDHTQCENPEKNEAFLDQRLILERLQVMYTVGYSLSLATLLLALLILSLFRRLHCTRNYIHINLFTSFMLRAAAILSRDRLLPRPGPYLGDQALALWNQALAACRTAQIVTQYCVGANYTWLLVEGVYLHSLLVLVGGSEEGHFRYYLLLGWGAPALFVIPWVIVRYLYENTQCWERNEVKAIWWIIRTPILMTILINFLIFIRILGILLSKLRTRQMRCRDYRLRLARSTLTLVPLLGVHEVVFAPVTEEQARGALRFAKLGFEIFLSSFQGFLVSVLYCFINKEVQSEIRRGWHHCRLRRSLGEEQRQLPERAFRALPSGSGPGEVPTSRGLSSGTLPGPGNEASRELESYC
Description: as §1, §2, §3, §4

GIPR = biological target: T3, GIPR (Mus musculus, UniProt Q0P543); experiment: Ex vivo islet GIPR desensitisation (pre-treat/washout/rechallenge cAMP); type: cell-based; conditions: for rechallenge cAMP response after 24-hour pre-treatment: cADDis
T3 construct: from tissue; host or cells: dispersed pancreatic islets of C57BL/6J, CAMPER Pdx1-CreERT2 and CAMPER Som-Cre mice
T3 sequence (Q0P543 19-460): T1 sequence (Q0P543 19-460)
Description: Primary cultures of mouse hypothalamic neurons and dispersed pancreatic islets were transduced with the Green Up cADDis biosensor (Montana Molecular, US). Pancreatic islets from CAMPER^Pdx−1-CreERT2 and CAMPER^Som-Cre mice were not transduced. Cells were pre-treated with peptides as specified, dissolved in culture media. Following 4 h or overnight incubation and a 1-hour washout period, cells were imaged using an epifluorescence microscope at baseline (t = 3 min), following peptide addition (t = 10 min, unless specified otherwise), and following 3-isobutyl-1-methylxanthine (IBMX) (500 μM) and forskolin (FSK) (50 μM) addition (t = 3 min) to maximally stimulate the sensor. In pre-treatment experiments, islet cell fluorescence was normalised to the IBMX/FSK response which was set as 100%. In non-pre-treatment experiments, islet and neuronal cell fluorescence was normalised to both the baseline and IBMX/FSK response. The area-under-the-curve (AUC) for each cell was quantified. Full details of isolation, transduction, plating, imaging and image analysis is provided in the supplementary methods.
During this treatment, peptides were dissolved in islet culture media. Prior to imaging, the peptide washout period was 1 hour in Krebs buffer with 6 mM glucose and 0.1% BSA.
Cells were imaged in Krebs buffer with 6 mM glucose and 0.1% BSA (unless 10% FBS was specified) at 37°C using an automated epifluorescence microscope (modified Nikon Ti-2E with LED illumination). Multiple fields of view (FOV) were imaged in parallel (for islets, multiple wells of a 96 well plate were imaged in parallel), allowing hundreds to thousands of cells to be imaged every minute throughout the time course. For all acquisitions, the first three minutes were baseline recording pre-peptide addition and the last three minutes were a positive control following IBMX (500 μM) and forskolin (50 μM) addition to maximally stimulate the sensor.
Cells were imaged in a similar setup described in the previous paragraph. However, an image spitter (OptoSplit III, Cairn Research Ltd, UK) was used to enable simultaneous acquisition of cyan fluorescent protein (CFP) and yellow fluorescent protein (YFP) emission. cAMP was quantified based on the YFP/CFP FRET ratio from each cell.
cAMP quantification from the raw islet/neuronal images was performed using Fiji v1.54f (NIH). […] The fluorescence intensity of each ROI was measured at each time point. In pre-treatment experiments, islet cell fluorescence was normalised to the maximal IBMX/FSK response which was set as 100%. For non-pre-treatment experiments, neuronal and islet cell fluorescence were normalised to both the baseline and maximal IBMX/FSK response. The AUC during peptide stimulation for each cell was quantified. […]

mouse SNAP-tagged GIPR = biological target: T4, mouse SNAP-tagged GIPR (Mus musculus, UniProt Q0P543); experiment: β-arrestin-2 activation assay (Borealis sensor) in AD-293 cells; type: cell-based; conditions: 1 μM, 30-minute stimulation, n = 5–6
T4 construct: host or cells: AD-293
T4 sequence (Q0P543 19-460): T1 sequence (Q0P543 19-460)
Description: AD-293 cells were transfected with desired plasmid DNA encoding a SNAP-tagged GPCR alongside transduction of Bacmam viral particles encoding the Borealis β-arrestin-2 sensor (Montana Molecular, US) and GRK5 (Montana Molecular, US) 24 h prior to assay. Cells were labelled for 10 min with BG-S-S-649 and imaged at baseline and for 30 min following peptide stimulation. Borealis arrestin sensor fluorescence in BG-S-S-649 labelled cells (representing GPCR expressing cells) was quantified and expressed as a % change from baseline.
AD-293 cells were added to a 96-well plate and maintained in 200 μL complete DMEM. 150 ng of mouse or human SNAP-tagged plasmid GIPR or GLP-1R DNA, 2 μL of Borealis β-arrestin-2 sensor (Montana Molecular, US) and 2 μL of GRK5 (Montana Molecular, US) was added to each well alongside Lipofectamine 2000 and left for 24 hours.
Cells were labelled with cleavable SNAP-tag probe BG-S-S-649 in complete DMEM for 10 minutes prior to washing and imaging. […] Cells were imaged at baseline, registering both BG-S-S-649 fluorescence and borealis arrestin sensor fluorescence. Borealis arrestin sensor fluorescence was then imaged for 30 minutes after peptide addition in intervals of 5 minutes. Borealis arrestin sensor fluorescence in BG-S-S-649 labelled cells was quantified using Fiji v1.54f (NIH) and expressed as a % change from baseline.

CC[C@H](C)[C@H](NC(=O)[C@H](CO)NC(=O)[C@H](Cc1ccc(O)cc1)NC(=O)[C@H](CC(=O)O)NC(=O)[C@H](CO)NC(=O)[C@@H](NC(=O)[C@H](Cc1ccccc1)NC(=O)[C@@H](NC(=O)CNC(=O)[C@H](CCC(=O)O)NC(=O)C(C)(C)NC(=O)[C@@H](N)Cc1ccc(O)cc1)[C@@H](C)O)[C@@H](C)CC)C(=O)N[C@@H](C)C(=O)N[C@@H](CC(C)C)C(=O)N[C@@H](CC(=O)O)C(=O)N[C@@H](CCCCN)C(=O)N[C@H](C(=O)N[C@@H](Cc1c[nH]cn1)C(=O)N[C@@H](CCC(N)=O)C(=O)N[C@@H](CCC(N)=O)C(=O)N[C@@H](CC(=O)O)C(=O)N[C@@H](Cc1ccccc1)C(=O)N[C@H](C(=O)N[C@@H](CC(N)=O)C(=O)N[C@@H](Cc1c[nH]c2ccccc12)C(=O)N[C@@H](CC(C)C)C(=O)N[C@@H](CC(C)C)C(=O)N[C@@H](C)C(=O)N[C@@H](CCC(N)=O)C(=O)N[C@@H](CCCCN)C(=O)NCC(=O)N[C@@H](CCCCNC(=O)CC[C@H](NC(=O)CCCCCCCCCCCCCCCCCCC(=O)O)C(=O)O)C(=O)N[C@@H](CCCCN)C(=O)N[C@@H](CC(N)=O)C(=O)N[C@@H](CC(=O)O)C(=O)N[C@@H](Cc1c[nH]c2ccccc12)C(=O)N[C@@H](CCCCN)C(=O)N[C@@H](Cc1c[nH]cn1)C(=O)N[C@@H](CC(N)=O)C(=O)N[C@H](C(=O)N[C@H](C(=O)N[C@@H](CCC(N)=O)C(=O)O)[C@@H](C)O)[C@@H](C)CC)C(C)C)[C@@H](C)CC [GIP108]
half-life [1]: extended half-life | receptor internalisation compared to vehicle (SNAP-tagged mouse GIPR): did not increase mouse GIPR internalisation | receptor internalisation compared to vehicle (SNAP-tagged human GIPR; 1-hour treatment, BG-S-S-649/Mesna, n = 3–4): increased human GIPR internalisation | residual receptor detectable at the cell surface (SNAP-tagged human GIPR; 4 h treatment, post-stimulation labelling, n = 7–8): reduction in residual human GIPR | GIPR desensitisation in pancreatic beta cells (GIPR; 24 h GIP108 pre-treatment, TEpacVV FRET sensor, CAMPER Pdx-1-CreERT2 mice, n = 4): GIPR desensitisation was observed in both cell types | GIPR desensitisation in pancreatic delta cells (GIPR; 24 h GIP108 pre-treatment, TEpacVV FRET sensor, CAMPER Som-Cre mice, n = 5): GIPR desensitisation was observed in both cell types | rechallenge cAMP response after 24-hour pre-treatment (GIPR; islets from HFD-induced obese mice, pre-treatment and rechallenge GIP108 (1 µM), n=3): The same effects were observed | rechallenge cAMP response after 24-hour pre-treatment (GIPR; pre-treatment 100 nM or 1 μM GIP108, rechallenge GIP108 (1 μM), dispersed islets from lean mice, n = 11–12): significantly reduced | β-arrestin-2 activation compared to vehicle control (mouse SNAP-tagged GIPR): neither hGIP (1 μM) nor GIP108 (1 μM) resulted in significant increases
